According to the supplement of paper PMC10733146:

Experiments:
Test in all cases: viability relative to DMSO control (fraction); higher = less drug effect (more viable cells)
Conditions in all cases: 48 h
[1] = test system: primary AML patient cells (S072)
Procedure, shortened: (§1)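 Using 384-well plates with compounds already plated at five concentrations, one well per concentration, 4 × 10^4 primary mononuclear tumour cells were added per well. Cells were Ficoll-isolated from blood or bone marrow or came from processed lymph node, fresh or cryopreserved. They were kept for 48 h at 37 °C and 5% CO2 in RPMI-1640 supplemented with penicillin/streptomycin, L-glutamine and human serum, and viability was read as CellTiter-Glo luminescence relative to the median of 16 inner DMSO wells.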

[2] = test system: primary CLL patient cells (S031)
Procedure, shortened: as §1

[3] = test system: primary MCL patient cells (S053)
Procedure, shortened: as §1

[4] = test system: primary AML patient cells (S085)
Procedure, shortened: as §1

[5] = test system: primary CLL patient cells (S043)
Procedure, shortened: as §1

[6] = test system: primary ALL patient cells (S048)
Procedure, shortened: as §1

[7] = test system: primary BL patient cells (S005)
Procedure, shortened: as §1

[8] = test system: primary AML patient cells (S091)
Procedure, shortened: as §1

[9] = test system: primary AML patient cells (S079)
Procedure, shortened: as §1

[10] = test system: primary AML patient cells (S019)
Procedure, shortened: as §1

[11] = test system: primary AML patient cells (S037)
Procedure, shortened: as §1

[12] = test system: primary MCL patient cells (S068)
Procedure, shortened: as §1

[13] = test system: primary FL patient cells (S022)
Procedure, shortened: as §1

[14] = test system: primary AML patient cells (S071)
Procedure, shortened: as §1

[15] = test system: primary AML patient cells (S089)
Procedure, shortened: as §1

[16] = test system: primary AML patient cells (S017)
Procedure, shortened: as §1

[17] = test system: primary AML patient cells (S012)
Procedure, shortened: as §1

[18] = test system: primary AML patient cells (S002)
Procedure, shortened: as §1

[19] = test system: primary AML patient cells (S025)
Procedure, shortened: as §1

[20] = test system: primary AML patient cells (S056)
Procedure, shortened: as §1

O=C1c2c(O)ccc(O)c2C(=O)c2c(NCCNCCO)ccc(NCCNCCO)c21 [Mitoxantrone]
viability ([1]; 0.008 µM): 0.839
viability ([1]; 0.04 µM): 0.715
viability ([1]; 0.2 µM): 0.661
viability ([1]; 1 µM): 0.152
viability ([1]; 5 µM): 0.0445
viability ([2]; 0.008 µM): 0.614
viability ([2]; 0.04 µM): 0.383
viability ([2]; 0.2 µM): 0.335
viability ([2]; 1 µM): 0.0955
viability ([2]; 5 µM): 0.0133
viability ([3]; 0.008 µM): 0.452
viability ([3]; 0.04 µM): 0.326
viability ([3]; 0.2 µM): 0.363
viability ([3]; 1 µM): 0.236
viability ([3]; 5 µM): 0.169
viability ([4]; 0.008 µM): 0.538
viability ([4]; 0.04 µM): 0.295
viability ([4]; 0.2 µM): 0.277
viability ([4]; 1 µM): 0.065
viability ([4]; 5 µM): 0.0217
viability ([5]; 0.008 µM): 0.739
viability ([5]; 0.04 µM): 0.849
viability ([5]; 0.2 µM): 0.488
viability ([5]; 1 µM): 0.0542
viability ([5]; 5 µM): 0.0236
viability ([6]; 0.008 µM): 0.449
viability ([6]; 0.04 µM): 0.0767
viability ([6]; 0.2 µM): 0.113
viability ([6]; 1 µM): 0.0232
viability ([6]; 5 µM): 0.0139
viability ([7]; 0.008 µM): 0.963
viability ([7]; 0.04 µM): 1.55
viability ([7]; 0.2 µM): 0.853
viability ([7]; 1 µM): 0.649
viability ([7]; 5 µM): 0.742
viability ([8]; 0.008 µM): 0.494
viability ([8]; 0.04 µM): 0.563
viability ([8]; 0.2 µM): 0.46
viability ([8]; 1 µM): 0.118
viability ([8]; 5 µM): 0.0676
viability ([9]; 0.008 µM): 0.801
viability ([9]; 0.04 µM): 0.655
viability ([9]; 0.2 µM): 0.526
viability ([9]; 1 µM): 0.133
viability ([9]; 5 µM): 0.0172
viability ([10]; 0.008 µM): 0.647
viability ([10]; 0.04 µM): 0.256
viability ([10]; 0.2 µM): 0.282
viability ([10]; 1 µM): 0.132
viability ([10]; 5 µM): 0.0646
viability ([11]; 0.008 µM): 0.843
viability ([11]; 0.04 µM): 0.581
viability ([11]; 0.2 µM): 0.447
viability ([11]; 1 µM): 0.345
viability ([11]; 5 µM): 0.211
viability ([12]; 0.008 µM): 0.814
viability ([12]; 0.04 µM): 0.596
viability ([12]; 0.2 µM): 0.434
viability ([12]; 1 µM): 0.0583
viability ([12]; 5 µM): 0.0225
viability ([13]; 0.008 µM): 0.953
viability ([13]; 0.04 µM): 0.844
viability ([13]; 0.2 µM): 0.804
viability ([13]; 1 µM): 0.437
viability ([13]; 5 µM): 0.229
viability ([14]; 0.008 µM): 0.139
viability ([14]; 0.04 µM): 0.125
viability ([14]; 0.2 µM): 0.124
viability ([14]; 1 µM): 0.102
viability ([14]; 5 µM): 0.0662
viability ([15]; 0.008 µM): 0.339
viability ([15]; 0.04 µM): 0.966
viability ([15]; 0.2 µM): 0.0966
viability ([15]; 1 µM): 0.0273
viability ([15]; 5 µM): 0.0313
viability ([16]; 0.008 µM): 0.952
viability ([16]; 0.04 µM): 0.811
viability ([16]; 0.2 µM): 0.608
viability ([16]; 1 µM): 0.126
viability ([16]; 5 µM): 0.0293
viability ([17]; 0.008 µM): 0.991
viability ([17]; 0.04 µM): 0.995
viability ([17]; 0.2 µM): 0.978
viability ([17]; 1 µM): 0.862
viability ([17]; 5 µM): 0.0416
viability ([18]; 0.008 µM): 0.744
viability ([18]; 0.04 µM): 0.443
viability ([18]; 0.2 µM): 0.332
viability ([18]; 1 µM): 0.334
viability ([18]; 5 µM): 0.22
viability ([19]; 0.008 µM): 0.539
viability ([19]; 0.04 µM): 0.399
viability ([19]; 0.2 µM): 0.533
viability ([19]; 1 µM): 0.0658
viability ([19]; 5 µM): 0.0287
viability ([20]; 0.008 µM): 0.397
viability ([20]; 0.04 µM): 0.17
viability ([20]; 0.2 µM): 0.128
viability ([20]; 1 µM): 0.0823
viability ([20]; 5 µM): 0.0488
